Values of other authors in patent US8921533B2, “Glycosylated valproic acid analogs and uses thereof” (Chromatin Technologies, priority 2011, dated 2014).
Read-outs that look alike come from different tables or passages of the source.

Tested on: sensitised guinea pig tracheal rings
Details: also contraction induced by histamine, 5-hydroxytryptamine and carbachol

Compound | inhibition of antigen-induced contraction of tracheal rings (1 mM) | inhibition of antigen-induced contraction of tracheal rings (100 microM)
CCCC(=O)[O-].[Na+] [sodium butyrate] | weak inhibitors | –
CCCC(CCC)C(=O)[O-].[Na+] [sodium valproate] | – | weak inhibitors
